Laboratory results reported in ChEMBL document CHEMBL4414576, “Recent advancements in mechanistic studies and structure activity relationship of FoF1 ATP synthase inhibitor as antimicrobial agent” (Eur J Med Chem, 2019).
In brackets after ≈: the same amount, converted by molar mass.

Assays:
[1] = Inhibition of F1F0-ATP synthase in Escherichia coli
Escherichia coli [2] = test: Inhibition of F1F0-ATP synthase in Escherichia coli relative to control; set-up: concentration or dose not given beside the values; details: concentration not given here
[3] = Inhibition of ATP synthase isolates from rat brain cells using succinate as substrate preincubated for 5 mins followed by substrate addition
[4] = test system: Mycobacterium tuberculosis H37Rv; test: Inhibition of F0F1-ATP synthase in Mycobacterium tuberculosis H37Rv at […] using succinate as substrate preincubated for 10 mins followed by substrate addition by luciferase reporter gene assay relative to control
Escherichia coli [5] = test: Inhibition of F1F0-ATP synthase in Escherichia coli after 60 mins relative to control; set-up: concentration or dose not given beside the values
Escherichia coli [6] = test: Inhibition of ATP synthase in Escherichia coli relative to control; details: concentration not given here
[7] = Inhibition of ATP synthase in Escherichia coli
Streptococcus pneumoniae = test: Antimicrobial activity against Streptococcus pneumoniae ATCC 49619; assay type: functional
Staphylococcus aureus = test: Antimicrobial activity against Staphylococcus aureus ATCC 29213; assay type: functional
[8] = Inhibition of F1F0-ATP synthase in Escherichia coli after 60 mins
ATP synthase = test: Inhibition of ATP synthase in Mycobacterium tuberculosis H37Rv; assay type: protein-complex assay
[9] = test system: Mycobacterium tuberculosis; test: Antimicrobial activity against Mycobacterium tuberculosis H37Rv after 5 days; assay type: functional
[10] = test system: Mycobacterium tuberculosis; test: Antimicrobial activity against Mycobacterium tuberculosis H37Rv; assay type: functional, organism-based
[11] = Inhibition of ATP synthase in Mycobacterium smegmatis; set-up: species or system Mycolicibacterium smegmatis
[12] = Selectivity index, ratio of CC50 for human HepG2 cells to MIC of Mycobacterium tuberculosis H37Rv; assay type: toxicity
[13] = Selectivity index, ratio of CC50 for African green monkey Vero cells to IC50 of Mycobacterium tuberculosis H37Rv; assay type: toxicity; details: read-out: Ratio IC50
[14] = target: ATP synthase (Mycobacterium tuberculosis) (UniProt P9WPU9+P9WPU5+P9WPU7+P9WPV5+P9WPS1+P9WPV1+P9WPV7+P9WPV3); test: Inhibition of ATP synthase in Mycobacterium tuberculosis H37Rv whole cell lysate after 18 hrs at 5X of MIC relative to control; assay type: subcellular
Mus musculus = species: Mus musculus; test: Inhibition of mitochondrial ATP synthase isolated from Swiss albino mouse liver at 100 uM using succinate as substrate after 1 hr relative to control
[15] = Selectivity index, ratio of IC50 for ATP synthase in Mycobacterium tuberculosis H37Rv to IC50 for mitochondrial ATP synthase isolated from swiss albino mouse liver

O=[N+]([O-])c1ccc(/N=C/c2ccccc2O)c(O)c1
IC50 [1]: 5 µM | inhibition (Escherichia coli [2]): 100%

COc1cc(/C=C/C(=O)CC(=O)/C=C/c2ccc(O)c(OC)c2)ccc1O [CURCUMIN]
IC50 [3]: 45 µM

COc1cccc(N2CCN(CC(O)COC(c3ccccc3)c3cccc4ccccc34)CC2)c1 (stereo not given)
inhibition [4]: 99%

C[C@@H]1O[C@@H](OC[C@H]2O[C@@H](Oc3c(-c4ccc(O)c(O)c4)oc4cc(O)cc(O)c4c3=O)[C@H](O)[C@@H](O)[C@@H]2O)[C@H](O)[C@H](O)[C@H]1O
inhibition (Escherichia coli [5]): 40 to 60%

Oc1cccc(/N=C/c2ccccc2O)c1
IC50 [1]: 5.25 µM | inhibition (Escherichia coli [2]): 85%

Oc1ccccc1/C=N/c1ccccc1O
IC50 [1]: 7 µM | inhibition (Escherichia coli [2]): 95%

O=c1c(O)c(-c2ccc(O)c(O)c2)oc2cc(O)cc(O)c12 [QUERCETIN]
inhibition (Escherichia coli [6]): 80% | IC50 [7]: 33 µM

COc1nc2ccc(Br)cc2cc1[C@H](c1ccccc1)[C@](O)(CCCCN1CCN(C)CC1)CCc1ccccc1
MIC (Streptococcus pneumoniae): 0.25 µg/mL (≈ 0.405 µM) | MIC (Staphylococcus aureus): 1 µg/mL (≈ 1.62 µM)

O=c1cc(-c2ccccc2)oc2cc(O)c(O)c(O)c12 [BAICALEIN]
IC50 [8]: 290 µM | inhibition (Escherichia coli [5]): 100%

CCN(CC)Cc1cc(N(c2cc(C)nc3cc(Cl)ccc23)S(=O)(=O)c2ccc(Cl)cc2)ccc1O
IC50 (ATP synthase): 0.36 to 1.83 µM | MIC [9]: 6.25 µg/mL (≈ 11.5 µM)

OC(COC(c1ccccc1)c1cccc2ccccc12)CN1CCN(C(c2ccccc2)c2ccccc2)CC1 (stereo not given)
inhibition [4]: 98%

O=c1c(O)c(-c2ccccc2)oc2cc(O)cc(O)c12
inhibition (Escherichia coli [5]): 0 to 20%

O=c1c(-c2ccc(O)cc2)coc2cc(O)cc(O)c12
inhibition (Escherichia coli [5]): 40 to 60%

Oc1cc2cc3ccccc3cc2c(O)c1O
inhibition (Escherichia coli [2]): 30%

COc1cc(C2Oc3cc([C@H]4Oc5cc(O)cc(O)c5C(=O)[C@@H]4O)ccc3OC2CO)ccc1O (stereo not given in full) [SILIBININ]
IC50 [8]: 340 µM | inhibition (Escherichia coli [5]): 100%

CCN(CC)Cc1cc(N(c2cc(C)nc3cc(Cl)ccc23)S(=O)(=O)c2ccc([N+](=O)[O-])cc2)ccc1O
IC50 (ATP synthase): 0.36 to 1.83 µM | MIC [9]: 6.25 µg/mL (≈ 11.3 µM)

O=[N+]([O-])c1cc(O)ccc1/N=C/c1ccccc1O
IC50 [1]: 6 µM | inhibition (Escherichia coli [2]): 100%

COc1nc2ccc(Br)cc2cc1[C@@H](c1ccccc1)[C@@](O)(CCN(C)C)c1cccc2ccccc12 [BEDAQUILINE]
MIC [10]: 3.6 µg/mL (≈ 6.48 µM) | IC50 [11]: 6.47 µM | selectivity ratio [12]: > 20000

Oc1cccc(/C=N/c2ccccc2O)c1
IC50 [1]: 9 µM | inhibition (Escherichia coli [2]): 85%

CC(N)C12CC3CC(CC(C3)C1)C2 (stereo not given) [RIMANTADINE]
IC50 [8]: 2000 µM | inhibition (Escherichia coli [5]): 100%

Oc1cc(O)cc(/C=C/c2ccc(O)c(O)c2)c1 [PICEATANNOL]
inhibition (Escherichia coli [6]): 100% | IC50 [3]: 8 µM | IC50 [7]: 14 µM

CCN(CC)Cc1cc(N(c2cc(C)nc3cc(Cl)ccc23)S(=O)(=O)c2cccc(Cl)c2Cl)ccc1O
IC50 (ATP synthase): 0.36 to 1.83 µM | MIC [9]: 3.12 µg/mL (≈ 5.39 µM)

O=c1c(O[C@@H]2O[C@H](CO)[C@@H](O)[C@H](O)[C@H]2O)c(-c2ccc(O)c(O)c2)oc2cc(O)cc(O)c12 [ISOQUERCETIN]
inhibition (Escherichia coli [6]): 40% | IC50 [7]: 71 µM

Oc1ccc(/N=C/c2ccccc2O)cc1
IC50 [1]: 5 µM | inhibition (Escherichia coli [2]): 100%

COc1ccccc1N1CCN(CC(O)COC(c2ccccc2)c2cccc3ccccc23)CC1 (stereo not given)
inhibition [4]: 90%

O=c1c(O)c(-c2ccc(O)cc2)oc2cc(O)cc(O)c12
inhibition (Escherichia coli [5]): 40 to 60%

O=C(CNC1CCCCC1)N(c1ccccc1)c1ccccc1
IC50 [10]: 14 µM | selectivity ratio [13]: 21.1

CCN(CC)Cc1cc(N(c2cc(C)nc3cc(Cl)ccc23)S(=O)(=O)c2cc(C)cc(C)c2)ccc1O
IC50 (ATP synthase): 0.36 to 1.83 µM | MIC [9]: 6.25 µg/mL (≈ 11.6 µM)

O=c1cc(-c2ccc(O)c(O)c2)oc2cc(O)cc(O)c12
inhibition (Escherichia coli [5]): 0 to 20%

CC1(C)CC(=O)C(=CNc2ccccc2O)C(=O)C1
MIC [10]: 2 µg/mL (≈ 7.71 µM) | IC50 [11]: 4 µM | inhibition [14]: 15 to 30% | selectivity ratio [12]: 20 | inhibition (Mus musculus): 25% | Ratio IC50 [15]: 11.6

COc1ccc(CC[C@@](O)(CCN(C)C)[C@@H](c2ccccc2)c2cc3cc(Br)ccc3nc2OC)cc1
MIC (Streptococcus pneumoniae): 0.25 µg/mL (≈ 0.444 µM)

Oc1ccccc1O
inhibition (Escherichia coli [2]): 40%

OC(COC(c1ccccc1)c1cccc2ccccc12)CN1CCN(c2ccccc2)CC1 (stereo not given)
inhibition [4]: 91%

Oc1cccc(/C=N/c2cccc(O)c2)c1
IC50 [1]: 2.25 µM | inhibition (Escherichia coli [2]): 100%

O=c1c(O)c(-c2ccc(O)cc2O)oc2cc(O)cc(O)c12 [MORIN]
IC50 [8]: 70 µM | inhibition (Escherichia coli [5]): 100%

Oc1ccc(/C=N/c2cccc(O)c2)cc1
IC50 [1]: 9 µM | inhibition (Escherichia coli [2]): 100%

CC[C@H](C)[C@H](NC(=O)CN)C(=O)NCC(=O)N[C@@H](C)C(=O)N[C@H](C(=O)N[C@@H](CC(C)C)C(=O)N[C@@H](CCCCN)C(=O)N[C@H](C(=O)N[C@@H](CC(C)C)C(=O)N[C@H](C(=O)N[C@H](C(=O)NCC(=O)N[C@@H](CC(C)C)C(=O)N1CCC[C@H]1C(=O)N[C@@H](C)C(=O)N[C@@H](CC(C)C)C(=O)N[C@H](C(=O)N[C@@H](CO)C(=O)N[C@@H](Cc1c[nH]c2ccccc12)C(=O)N[C@H](C(=O)N[C@@H](CCCCN)C(=O)N[C@@H](CCCNC(=N)N)C(=O)N[C@@H](CCCCN)C(=O)N[C@@H](CCCNC(=N)N)C(=O)N[C@@H](CCC(N)=O)C(=O)N[C@@H](CCC(N)=O)C(N)=O)[C@@H](C)CC)[C@@H](C)CC)[C@@H](C)O)[C@@H](C)O)C(C)C)C(C)C
inhibition (Escherichia coli [2]): 78%

Oc1cccc(O)c1
inhibition (Escherichia coli [2]): 20%

COc1nc2ccc(Br)cc2cc1[C@H](c1cc(F)ccc1F)[C@](O)(CCCCN(C)C)c1ccccc1
MIC (Streptococcus pneumoniae): 0.25 µg/mL (≈ 0.439 µM) | MIC (Staphylococcus aureus): 1 µg/mL (≈ 1.76 µM)

Oc1ccc(O)cc1
inhibition (Escherichia coli [2]): 80%

COc1nc2ccc(Br)cc2cc1[C@H](c1ccccc1)[C@](O)(CCCCN(C)C)CCc1ccccc1
MIC (Streptococcus pneumoniae): 0.25 µg/mL (≈ 0.445 µM) | MIC (Staphylococcus aureus): 2 µg/mL (≈ 3.56 µM)

NNC(=O)c1ccncc1
inhibition [4]: 99%

Oc1ccc(/C=C/c2cc(O)cc(O)c2)cc1 [RESVERATROL]
inhibition (Escherichia coli [6]): 40% | IC50 [3]: 19 µM | IC50 [7]: 94 µM

NC12CC3CC(CC(C3)C1)C2 [AMANTADINE]
IC50 [8]: 2500 µM | inhibition (Escherichia coli [5]): 100%

Oc1cc2cc3ccccc3cc2cc1O
inhibition (Escherichia coli [2]): 22%

O=C(CNC1CCCC1)N(c1ccccc1)c1ccccc1
IC50 [10]: 10.4 µM | selectivity ratio [13]: 24

Oc1cc(O)c2c(c1)OC(c1ccc(O)c(O)c1)C(O)C2 (stereo not given) [CATECHIN]
IC50 [8]: 4000 µM | inhibition (Escherichia coli [5]): 100%

O=C(O[C@@H]1Cc2c(O)cc(O)cc2O[C@@H]1c1cc(O)c(O)c(O)c1)c1cc(O)c(O)c(O)c1 [EPIGALOCATECHIN GALLATE]
IC50 [3]: 17 µM

CCN(CC)Cc1cc(N(c2cc(C)nc3cc(Cl)ccc23)S(=O)(=O)c2ccc(Cl)s2)ccc1O
IC50 (ATP synthase): 0.36 to 1.83 µM | MIC [9]: 6.25 µg/mL (≈ 11.4 µM)

CCN(CC)Cc1cc(N(c2cc(C)nc3cc(Cl)ccc23)S(=O)(=O)c2ccc(Cl)cc2Cl)ccc1O
IC50 (ATP synthase): 0.36 to 1.83 µM | MIC [9]: 3.12 µg/mL (≈ 5.39 µM)

O=c1cc(-c2ccccc2)oc2cc(O)cc(O)c12
inhibition (Escherichia coli [5]): 40 to 60%

COc1ccc([C@@H]2CC(=O)c3c(O)cc(O[C@@H]4O[C@H](CO[C@@H]5O[C@@H](C)[C@H](O)[C@@H](O)[C@H]5O)[C@@H](O)[C@H](O)[C@H]4O)cc3O2)cc1O
inhibition (Escherichia coli [5]): 40 to 60%

O=c1c(-c2ccc(O)cc2)coc2cc(O)ccc12
inhibition (Escherichia coli [5]): 0 to 20%

SILYMARIN
IC50 [8]: 110 µM

COc1ccc(-c2cc(=O)c3c(O)cc(O[C@@H]4O[C@H](CO[C@@H]5O[C@@H](C)[C@H](O)[C@@H](O)[C@H]5O)[C@@H](O)[C@H](O)[C@H]4O)cc3o2)cc1O
inhibition (Escherichia coli [5]): 40 to 60%

C[C@H]1COc2c(N3CCN(C)CC3)c(F)cc3c(=O)c(C(=O)O)cn1c23.C[C@H]1COc2c(N3CCN(C)CC3)c(F)cc3c(=O)c(C(=O)O)cn1c23.O [LEVOFLOXACIN]
MIC (Staphylococcus aureus): 0.25 µg/mL

O=c1cc(-c2ccc(O)cc2)oc2cc(O)cc(O)c12
inhibition (Escherichia coli [5]): 40 to 60%
